pIC50: −log10 of the molar value.
Assays:
Type in all cases: functional, cell-based
[1] = The compound was tested in vitro for cytotoxic activity against UCLA-P3 cell line (human lung adenocarcinoma); conditions: UCLA P-3
PC-3 = test: The compound was tested in vitro for cytotoxic activity against PC-3 cell line (human prostate carcinoma)
H322 = test: The compound was tested in vitro for cytotoxic activity against H 322 cell line (human lung adenocarcinoma); conditions: NCI-H322
MCF7 = test: The compound was tested in vitro for cytotoxic activity against MCF-7 cell line (human breast carcinoma)
MOLT-4 = test: The compound was tested in vitro for cytotoxic activity against Molt-4 cell line (human T-cell leukemia)
BT-549 = test: The compound was tested in vitro for cytotoxic activity against BT-549 cell line (human breast carcinoma)
B16 = test: The compound was tested in vitro for cytotoxic activity against B-16 cell line (mouse melanoma)
786-0 = test: The compound was tested in vitro for cytotoxic activity against 786-O cell line (human perirenal carcinoma)
HL-60 = test: The compound was tested in vitro for cytotoxic activity against HL-60 cell line (human promyelomic leukemia)
[2] = The compound was tested in vitro for cytotoxic activity against M24-MET cell line (human metastatic melanoma); conditions: M24met
SiHa = test: The compound was tested in vitro for cytotoxic activity against SIHA cell line (human cervix carcinoma)
OVCAR-3 = test: The compound was tested in vitro for cytotoxic activity against OVCAR-3 cell line (human ovarian carcinoma)
HT-29 = test: The compound was tested in vitro for cytotoxic activity against HT-29 cell line (human colon adenocarcinoma)
SK-MEL-28 = test: The compound was tested in vitro for cytotoxic activity against SK-MEL 28 cell line (human melanoma)
L1210 = test: The compound was tested in vitro for cytotoxic activity against L1210 cell line (mouse leukemia)

## CC(C)[C@H]1C(=O)OC[C@@H](NC(=O)c2ccc3ccccc3n2)C(=O)N2CCCC[C@H]2C(=O)NCC(=O)N(C)CC(=O)N(C)[C@@H](C(C)C)C(=O)OC[C@@H](NC(=O)c2ccc3ccccc3n2)C(=O)N2CCCC[C@H]2C(=O)NCC(=O)N(C)CC(=O)N1C
[1]
  pIC50: 11.70
PC-3
  pIC50: 12.00
H322
  pIC50: 8.00
MCF7
  pIC50: 10.40
MOLT-4
  pIC50: 8.52
BT-549
  pIC50: 11.00
B16
  pIC50: 10.22
786-0
  pIC50: 11.00
HL-60
  pIC50: 12.00
[2]
  pIC50: 10.40
SiHa
  pIC50: 12.00
OVCAR-3
  pIC50: 9.00
HT-29
  pIC50: 11.00
SK-MEL-28
  pIC50: 12.00
L1210
  pIC50: 9.70

## CC(C)[C@H]1C(=O)OC[C@@H](NC(=O)c2nc3ccccc3cc2O)C(=O)N2CCCC[C@H]2C(=O)NCC(=O)N(C)CC(=O)N(C)[C@@H](C(C)C)C(=O)OC[C@@H](NC(=O)c2nc3ccccc3cc2O)C(=O)N2CCCC[C@H]2C(=O)NCC(=O)N(C)CC(=O)N1C
[1]
  pIC50: 8.00
PC-3
  pIC50: 9.70
H322
  pIC50: 7.70
MCF7
  pIC50: 6.52
MOLT-4
  pIC50: 9.15
BT-549
  pIC50: 9.00
B16
  pIC50: 9.40
786-0
  pIC50: 8.10
HL-60
  pIC50: 7.10
[2]
  pIC50: 9.40
SiHa
  pIC50: 9.52
OVCAR-3
  pIC50: 8.40
HT-29
  pIC50: 9.00
SK-MEL-28
  pIC50: 9.00
L1210
  pIC50: 10.70
